{
  "source": "patent US12533357B2",
  "about": "“Treatment for acute myeloid leukemia or myelodysplastic syndrome” (UNIVERSITY HEALTH NETWORK, priority 2019, dated 2026)",
  "key": {"[1]": {"test_system": "MOLT-4 acute lymphoblastic leukemia xenograft", "experiment": "MOLT-4 xenograft tumor growth in SCID mice", "assay_type": "in vivo", "settings": "day 13; 0.5 mg/kg IP weekly; p=0.21", "method": "(§1) The human acute lymphoblastic leukemia cell line MOLT-4 was acquired from American Type Culture Collection (Manassas, VA, USA) and grown in RPMI medium containing 100 units/mL penicillin G sodium, 100 μg/mL streptomycin sulfate. The media was supplemented with 10% heat-inactivated fetal bovine serum, 2 mM L-glutamine, and 0.11% sodium pyruvate. The tumor cells were maintained in a humidified environment of 5% CO2 and 95% air at 37° C. Cells were verified to be free of mouse pathogens by IMPACT IV PCR analysis (IDEXX RADIL, Colombia, MO, USA) before injection.\n(§2) Female SCID mice were purchased from the Ontario Cancer Institute and received and acclimated at the MaRS-TMDT Animal Resources Centre for 2 weeks prior to the start of the experiment. The mice were fed ad libitum autoclaved water and Rodent Lab Diet (Harlan Teklad LM-485) consisting of 19% crude protein, 5% crude fat, and 5% crude fiber. Mice were housed in microisolator cages and maintained in an environment with a 12-hour light cycle at 20-22° C. and 40-60% humidity. On the day of implantation, MOLT-4 cells were harvested and resuspended with serum free DMEM to a concentration of 1×10^8/mL and each mouse was injected subcutaneously with a volume of 0.1 mL containing 1×10^7 MOLT-4 cells in the right rear flank.\nAnimals were dosed Compound (I) via oral gavage in a volume of 10 mL/kg. The animals were dosed with a 2.25 mm×50 mm curved gavage needle affixed to a 1 mL syringe. Vincristine was dosed by IP injection once per week.\n(§3) Toxicity was evaluated by body weight measurements and clinical observations. The mice were observed daily for overt signs of any adverse, treatment related side effects, and clinical signs of toxicity. Acceptable toxicity was set at a group mean body weight loss of less than 20% during the study and not more than one treatment related death in a group. Animals were monitored for body weights and tumor growth where tumor volumes were calculated using the formula: tumor volume=width^2×length/2.\n(§4) The study evaluated Compound (I) fumarate administered by oral gavage for 21 days, either daily at 7.5 mg/kg or 2 days on/5 days off at 13.5 mg/kg, in comparison to the standard-of-care agent vincristine, dosed in 4 weekly intraperitoneal injections of 0.5 mg/kg, in the MOLT-4 […] xenograft model in SCID (severe combined immunodeficiency) mice. Xenografts were established by subcutaneously injecting 1×10^7 tumor cells into the right flank of female SCID mice. Treatment was initiated 9 days following implantation when tumor volumes reached a mean volume of approximately 250 mm^3."}, "[2]": {"test_system": "MV4-11 acute myeloid leukemia xenograft", "experiment": "MV4-11 xenograft tumor growth in SCID mice", "assay_type": "in vivo", "settings": "day 13; vincristine 0.5 mg/kg IP weekly; p=0.14", "method": "as §1, with “myeloid” for “lymphoblastic”, “MV4-11” for “MOLT-4”\nas §2, with “MV4-11” for “MOLT-4”\nAnimals were dosed Compound (I) via oral gavage in a volume of 10 ml/kg. The animals were dosed with a 2.25 mm×50 mm curved gavage needle affixed to a 1 ml syringe. Vincristine was dosed by IP injection once per week.\nas §3\nas §4, with “gavage,” for “gavage for 21 days,”, “MV4-11” for “MOLT-4”, “14” for “9”, “90” for “250”, “mm^3. […] Animals were dosed in the 2-on/5-off schedule for 21 days. […] By day 13, the average volume of the control tumors was 878 mm^3, averaging […] tumor growth over the 13 days. On day 13 the average tumor growth inhibition in the vincristine treated arm was 85% (p=0.14).” for “mm^3.”"}},
  "data": [
    {"compound": "CC[C@]1(O)C[C@H]2CN(CCc3c([nH]c4ccccc34)[C@@](C(=O)OC)(c3cc4c(cc3OC)N(C=O)[C@H]3[C@@](O)(C(=O)OC)[C@H](OC(C)=O)[C@]5(CC)C=CCN6CC[C@]43[C@@H]65)C2)C1", "note": "[vincristine, reference compound]", "values": [
      {"measurement": "average tumor growth inhibition", "setting": "[1]", "result": 18, "unit": "%"},
      {"measurement": "average tumor growth inhibition", "setting": "[2]", "result": 85, "unit": "%"}
    ]}
  ]
}
